Test system: wound healing mouse skin sections
Test: Immunostaining and western blot of day 14 wound tissue markers
Format: in vivo, mice
Protocol: Briefly, immunohistochemical and immunofluorescence analysis were performed on 5 μm thick wound healing mouse skin sections. The sections were deparaffinized and subjected to an antigen retrieval process by using sodium citrate buffer at 95° C. followed by immersed in 0.5% triton X-100. The section slides were blocked using 5% goat serum in 0.1% PBS-T for 1 hour. The following primary antibodies mouse monoclonal [LL002] anti-Cytokeratin14 (catalog No.—ab7800; IF-1:100), rat CD31 antibody (Catalog No.—553370; IF-1:100), mouse S100 antibody (Catalog No.—MA5-12969; IF-1:200), rabbit nerve growth factor receptor—p75-NTR antibody (Catalog No.—AB1554; IF and WB-1:500), Chicken neurofilament Heavy-NFH antibody (Catalog No.—NB300-217; IF-1:500), mouse alpha-smooth muscle actin —α-SMA antibody (Catalog No.—14-9760-82; IF-1:200 and WB-1:500), mouse TGF beta antibody (Catalog No.—27969; IF-1:100 and WB-1:500), rabbit Ki67 antibody (Catalog No.—9129S; IF-1:400), chicken keratin 15 antibody (Catalog No. —833901; IF-1:500), rabbit K17 antibody (gift from Pierre a. coulombe Lab; IF-1:1000), rabbit interleukin-1 beta antibody (Catalog No.—GTX74034; IF-1:100), rat F4/80 antibody (Catalog No.—MCA497GA; IF-1:100), mouse anti-SOX10 antibody (Catalog No.—sc-365692; IF-1:100 and WB-1:200), chicken anti-myelin basic protein antibody (Catalog No.—MBP; IF-1:1000), rabbit vimentin antibody (Catalog No.—10366-1-AP; IF-1:200), rabbit NGF antibody (Catalog No.—MA5-32067; IF-1:100 and WB-1:1000), mouse PGP 9.5 antibody (Catalog No.—PA5-29012; IF-1:200), chicken anti-P-zero myelin protein antibody (Catalog No.—PZO; IF-1:200), and rat substance P antibody (Catalog No. —NB100-65219; IF-1:100) were overnight incubated with 5% BSA in 0.1% PBS-T for IF stain and/or 5% skimmed milk in 0.1% TBS-T for Western blot at 4° C., then incubated with secondary antibodies for 1 hour at room temperature. The ProLong™ Gold Anti-fade Mountant with DAPI (Invitrogen, Caltlog No. P36935) used as nuclear counterstain. The immunofluorescence stained sections were imaged using ZEISS Axio Observer 7—Axiocam 506 mono—Apotome.2 microscope. The image analysis and quantification were formed either using ZEN 2.6 pro (Zeiss) imaging software or ImageJ-1.53e software (National Institutes of Health, USA).
For protein isolation the harvested skin tissue was flash frozen immediately. The frozen skin tissue ground to a fine power using a liquid nitrogen mortar. The harvested cells and/or tissue powder dissolved in RIPA buffer containing Halt™ Phosphatase (Thermo Scientific, Catlog No. 78420,) and Protease Inhibitor Cocktail (Roche complete tablets mini EASYpack, Catlog No. 04694124001). Tissue and cell debris removed by centrifuged at 14000 rpm for 30 minutes at 4° C. The supernatant was collected and the total protein concentration was determined by BCA protein assay (Thermo Scientific™ Pierce™, Catlog No. 23225). The proteins (20-30 μg) of the tissue protein samples were subjected to 12% sodium dodecyl sulfate polyacrylamide gel electrophoresis (Bio-Rad mini-PROTEAN TGX Gels, Catlog No. 4561044) and transferred to polyvinylidene fluoride (PVDF) membranes. After the membranes were blocked with 5% skimmed milk in 1×TBS-T for 1 hour, they were incubated with the appropriate primary antibodies (1:200-1:1000) at 4° C. overnight, then incubated with HRP-conjugated secondary antibodies (1:3000) for 1 hour. Immunoreactivity was then detected using chemiluminescent substrate (Thermo Scientific™ SuperSignal™ West Pico PLUS, Catlog No. 34577). The intensities of the bands were quantified using Gel-imaging software. The quantified band intensity were normalized using GAPDH and expressed either normalized intensity or ratios with respect to saline treated mice.

[1] = day 14, vs saline treated controls

Nc1ccncc1 [4-AP, 4-aminopyridine]
keratinocyte K10 expression in healed epidermis (day 14): did not cause any change
levels of PGP 9.5 compared with uninjured tissue (day 14): not significantly different
K17 expressing cells (day 14, vs control group): more abundant
inflammatory cells (IL-1β) and macrophages (F4/80) in granulation tissue (day 14, vs control wounds): less of inflammatory cells and macrophages
fold increase in Ki-67+ [1]: 2 fold
fold increase in NF-H axonal counts [1]: 2.5 fold
fold increase in S100+ cells [1]: 3 fold
increase in K15+ cells [1]: two fold increase
SOX10 expression (day 14, vs saline treated mice): Significantly increased
fold increase in NGF expression (day 14, vs saline treated mice): 4 fold
substance-P expression (day 14, vs saline treated mice): Significantly increased
fold increase in K14+ keratinocytes (day 14, vs saline-treated mice): 2.5 fold
double positive (S100+, p75-NTR+) SCs (day 14, vs saline, confirmed by WB for p75-NTR): increased numbers
K14+ keratinocytes (day 14 wound bed): 13.72±1.403%
Ki-67+ in hair follicle bulges and epidermis (day 14 wound tissue): 21.87±2.763 cells/mm^2
NF-H axonal counts (day 14 wound tissue): 194±50.51 count/mm^2
NGF expression (day 14 wound tissue): 2429872±375280 integrated density/mm^2
S100+ cells around nerve bundles (day 14 wound tissue): 6.483±1.163 % positive cells
CD31 intensity (blood vessels) (day 14 wound tissue, vs saline): statistically significant increases
TGF-β protein expression (day 14 wound tissue, vs saline): significant increases
vimentin-positive fibroblasts (day 14 wound tissue, vs saline): more vimentin-positive fibroblasts
α-SMA-positive myofibroblasts (day 14 wound tissue, vs saline): more
PGP 9.5+ nerve fibres (fourteen days post wound): 4096938±713297 integrated density/mm^2
PGP 9.5+ nerve fibres relative to saline treated mice (fourteen days post wound): twice as abundant

Source: US20240024216A1, “METHODS AND MATERIALS FOR TREATING HAIR LOSS” (The Penn State Research Foundation, priority 2021, published 2024)
